Measured values from US12070036B2, “Methods and compositions comprising nematode signalling compounds” (PHERONYM, INC., priority 2018, dated 2024).

Tested on: RKN J2
Assay: RKN J2 dispersal away from the pheromone application site
Assay type: in vivo, Meloidogyne spp.
Settings: for activity as a repellent (in words): single ascarosides vs presented together
Experimental: FIG. 2. RKN J2 responds to pheromones purified from S. carpocapsae growth medium within 2 hours. The 57% MeOH extraction only contains one pheromone, ascr #10, which is also secreted by RKN. […] The 73% MeOH extraction includes both ascr #10 and ascr #18. Both of these pheromones are released by RKN J2. We can already see a synergy and recognition and 15% more J2 left the pheromone application spot due to recognition of the pheromone signals. […] The figure is representative of the 2 independent experiments repeated in time and each experiment has 6 independent replications.
FIG. 3. RKN J2 response to pheromones extracted from S. feltiae growth medium within 2 h of exposure. Control has only water. Pheromones resuspended in water. The experiment has 5 independent replications.
We extracted the pheromones with 58% and 73% Methyl alcohol using S. carpocapsae insect host cadavers, the growth medium for S. carpocapsae. Then the extracts were dried and re-suspended in MILLIQ water. Centrifuged at 6000 r.c.f. to remove insoluble material and then dried using a speed vac. […] This particular fraction only included one ascaroside, ascr #10, common between RKN and S. carpocapsae. […] The 73% MeOH extract contained two common pheromones, ascr #10 and ascr #18, between RKN and S. carpocapsae. The two pheromones together caused 15% more RKN J2 to move away from the application site compared to water control.
We tested this with one more Steinernema species growth medium. We extracted the pheromones using 70% MeOH from the S. feltiae growth medium (insect host cadavers). This particular extraction contains the two common ascarosides, ascr #10 and ascr #18, between RKN and Steinernema species.
Since ascr #10 and […] are the only common ascarosides between Steinernema and RKN species, we looked at other species that release ascarosides that RKN J2 release.

Row | Structure (SMILES) | RKN J2 response to pheromones (in words) (RKN J2, within 2 hours, vs water control) | activity as a repellent (in words)
1 | C[C@H](CCCCCCC(=O)O)O[C@@H]1O[C@@H](C)[C@H](O)C[C@H]1O [ascr #10] | did not elicit any response | not active
2 | C[C@H](CCCCCCCCC(=O)O)O[C@@H]1O[C@@H](C)[C@H](O)C[C@H]1O [ascr #18] | – | not active
